How the values were obtained:
[1] = system: Bovine viral diarrhea virus 1; experiment: Antiviral activity against BVDV infected in […] cells assessed as inhibition of virus-induced cytopathogenicity by MTT assay; type: functional, organism-based; details: Bovine viral diarrhea virus isolates and strains
[2] = Cytotoxicity against […] cells by MTT assay; type: cell-based
[3] = system: Bovine viral diarrhea virus 1; experiment: Antiviral activity against BVDV bearing mutant RdRp infected in […] cells assessed as inhibition of virus-induced cytopathogenicity by MTT assay; type: functional, organism-based; details: Bovine viral diarrhea virus isolates and strains
[4] = Inhibition of BVDV RNA dependent NS5B polymerase; parameters: species or system Bovine viral diarrhea virus 1
[5] = Inhibition of hepatitis C virus RNA dependent NS5B polymerase; parameters: species or system Hepacivirus hominis
[6] = Selectivity index, ratio of CC50 for […] cells to EC50 for BVDV

Row | SMILES | EC50 [1] | further results
1 | Brc1ccc(/N=N/C2=C3CCCCN3CCC2)cc1 | > 59 µM | 
2 | CN1CCC/C1=C\N=N\c1cccc([N+](=O)[O-])c1 | 5.5 µM | 
3 | CN1C=C(/N=N/c2cc(C(F)(F)F)cc(C(F)(F)F)c2)CCC1 | > 64 µM | 
4 | FC(F)(F)c1cc(/N=N/C2=C3CCCN3CCC2)ccc1Cl | > 21 µM | 
5 | C[C@@]1(O)[C@H](O)[C@@H](CO)O[C@H]1n1cnc2c(=O)[nH]c(N)nc21 [2'-B-METHYL-GUANOSINE] | 1.7 µM | 
6 | CN1C=C(/N=N/c2ccc(Cl)c(C(F)(F)F)c2)CCC1 | > 28 µM | 
7 | CN1CCC/C1=C\N=N\c1ccc(Br)cc1 | 11 µM | 
8 | CN1CCC/C1=C\N=N\c1cccc(C(F)(F)F)c1 | 21 µM | 
9 | CN1CCC/C1=C\N=N\c1c(F)c(F)c(F)c(F)c1F | > 100 µM | 
10 | FC(F)(F)c1cc(/N=N/C=C2\CCCN2Cc2ccccc2)ccc1Cl | > 14 µM | 
11 | O=[N+]([O-])c1cccc(/N=N/C2=C3CCCCN3CCC2)c1 | > 100 µM | 
12 | C(/N=N/c1ccccc1)=C1/CCCN1Cc1ccccc1 | > 74 µM | 
13 | c1ccc2c(/N=N/C3=C4CCCCN4CCC3)cccc2c1 | 6 µM | 
14 | CN1C=C(/N=N/c2ccc(Br)cc2)CCC1 | 60 µM | 
15 | CN1C=C(/N=N/c2cccc(Br)c2)CCC1 | 19 µM | 
16 | Clc1ccc(/N=N/C2=C3CCCN3CCC2)cc1Cl | > 67 µM | 
17 | O=[N+]([O-])c1cccc(/N=N/C2=C3CCCN3CCC2)c1 | > 68 µM | 
18 | CN1CCC/C1=C\N=N\c1ccc(F)c(C(F)(F)F)c1 | 100 µM | 
19 | CN1C=C(/N=N/c2cccc(Cl)c2)CCC1 | 12 µM | 
20 | FC(F)(F)c1cc(/N=N/C2=C3CCCCN3CCC2)cc(C(F)(F)F)c1 | > 31 µM | 
21 | CN1C=C(/N=N/c2c(F)c(F)c(F)c(F)c2F)CCC1 | > 100 µM | 
22 | CN1CCC/C1=C\N=N\c1cccc(Br)c1 | 9 µM | 

Row | SMILES | EC50 [1] | further results
23 | CC(=O)Nc1ccc(-c2nc3cc(Cl)c(Cl)cc3[nH]2)cc1 | 1 µM | CC50 [2]: 58 µM; EC50 [3]: > 100 µM
24 | CN1C=C(/N=N/c2ccc(Br)c(C(F)(F)F)c2)CCC1 | 40 µM | 
25 | CN1C=C(/N=N/c2ccc(Cl)cc2)CCC1 | > 58 µM | 
26 | FC(F)(F)c1cc(/N=N/C2=C3CCCCN3CCC2)ccc1Br | 61 µM | 
27 | Clc1ccc(/N=N/C=C2\CCCN2Cc2ccccc2)cc1 | > 18 µM | 
28 | Brc1cccc(/N=N/C2=C3CCCCN3CCC2)c1 | > 10 µM | 
29 | CN1CCC/C1=C\N=N\c1ccc(F)cc1 | 18 µM | 
30 | CN1C=C(/N=N/c2ccc(F)cc2)CCC1 | > 48 µM | 
31 | FC(F)(F)c1cc(/N=N/C2=C3CCCCN3CCC2)ccc1Cl | > 35 µM | 
32 | Cc1ccc(/N=N/C=C2\CCCN2Cc2ccccc2)cc1 | > 22 µM | 
33 | O=[N+]([O-])c1cc(/N=N/C2=C3CCCCN3CCC2)ccc1Cl | > 18 µM | 
34 | CN1C=C(/N=N/c2ccccc2Cl)CCC1 | 100 µM | 
35 | Fc1ccc(/N=N/C2=C3CCCCN3CCC2)cc1C(F)(F)F | > 100 µM | 
36 | CN1CCC/C1=C\N=N\c1ccc(Cl)cc1 | 21 µM | 
37 | CN1CCC/C1=C\N=N\c1cc(C(F)(F)F)cc(C(F)(F)F)c1 | > 36 µM | 
38 | Cc1ccc(/N=N/C2=CN(C)CCC2)cc1 | > 100 µM | 
39 | Clc1ccc(/N=N/C2=C3CCCCN3CCC2)cc1 | > 60 µM | 
40 | CC(=O)Nc1ccc(-c2nc3cc([N+](=O)[O-])ccc3[nH]2)cc1 | 0.8 µM | CC50 [2]: > 100 µM; EC50 [3]: > 100 µM
41 | Clc1cccc(/N=N/C2=C3CCCCN3CCC2)c1 | > 20 µM | 
42 | Fc1ccc(/N=N/C2=C3CCCCN3CCC2)cc1 | > 56 µM | 
43 | Clc1ccc(/N=N/C2=C3CCCCN3CCC2)cc1Cl | > 30 µM | 
44 | CN1CCC/C1=C\N=N\c1ccc(Cl)c(Cl)c1 | 16 µM | 

Row | SMILES | EC50 [1] | further results
45 | CN1C=C(/N=N/c2ccc([N+](=O)[O-])cc2)CCC1 | 11 µM | 
46 | O=[N+]([O-])c1ccc(/N=N/C2=C3CCCCN3CCC2)cc1 | 86 µM | 
47 | c1ccc2c(/N=N/C3=C4CCCN4CCC3)cccc2c1 | 3.5 µM | 
48 | Nc1ccc(-c2nc3cc([N+](=O)[O-])ccc3[nH]2)cc1 | 1.5 µM | CC50 [2]: 79 µM; EC50 [3]: > 79 µM
49 | c1ccc2c(/N=N/C3=C4CCCN4CCC3)nncc2c1 | > 100 µM | 
50 | CN1C=C(/N=N/c2ccc(F)c(C(F)(F)F)c2)CCC1 | > 100 µM | 
51 | Cc1ccc(/N=N/C=C2\CCCN2C)cc1 | 20 µM | 
52 | CN1C=C(/N=N/c2cccc(C(F)(F)F)c2)CCC1 | 90 µM | 
53 | Clc1ccc(/N=N/C2=C3CCCN3CCC2)cc1 | > 30 µM | 
54 | CN1C=C(/N=N/c2ccccc2)CCC1 | > 100 µM | 
55 | CN1CCC/C1=C\N=N\c1ccccc1 | 10 µM | 
56 | CN1CCC/C1=C\N=N\c1ccc([N+](=O)[O-])cc1 | 19 µM | 
57 | CN1C=C(/N=N/c2ccc(Cl)c([N+](=O)[O-])c2)CCC1 | > 61 µM | 
58 | CN1CCC/C1=C\N=N\c1ccc(Br)c(C(F)(F)F)c1 | 46 µM | 
59 | FC(F)(F)c1cccc(/N=N/C2=C3CCCCN3CCC2)c1 | > 8 µM | 
60 | CN1C=C(/N=N/c2ccc(Cl)c(Cl)c2)CCC1 | 7 µM | 
61 | CN1C=C(/N=N/c2cccc3ccccc23)CCC1 | 5 µM | CC50 [2]: > 100 µM; EC50 [3]: > 100 µM; IC50 [4]: 28 µM; IC50 [5]: 55 µM
62 | CN1C=C(/N=N/c2cccc([N+](=O)[O-])c2)CCC1 | 0.8 µM | CC50 [2]: > 100 µM; Ratio CC50/EC50 [6]: 125; IC50 [4]: 32 µM; IC50 [5]: 30 µM
63 | Clc1ccc(/N=N/C=C2\CCCN2Cc2ccccc2)cc1Cl | > 79 µM | 
64 | Clc1ccccc1/N=N/C1=C2CCCCN2CCC1 | > 100 µM | 
65 | COc1ccc(/N=N/C=C2\CCCN2C)cc1 | 18 µM | 

Source: ChEMBL document CHEMBL1212868, “Synergistic experimental/computational studies on arylazoenamine derivatives that target the bovine viral diarrhea virus RNA-dependent RNA polymerase” (Bioorg Med Chem, 2010)
